* marks the point of attachment. Palmitoyl = CCCCCCCCCCCCCCCC(=O)*
Tested on: IL-6
Experiment: Synergy test: IL-6 production on HK following blue light irradiation (ELISA)
Format: cell-based, human
Settings: blue light 30.2 J/cm2, 24 hours contact, compound taken separately, nsd
Description: HK are cultivated in their culture medium. After rinsing with PBS, the cells are returned to this same buffer and exposed to blue light at a non-cytotoxic dose of 30.2 J/cm^2. The exhibition system consists of a set of 30 blue LEDs spread over a 30 cm^2 flat surface. The photon flux reaches the cells perpendicularly. The temperature is controlled, and all the cells are in the same enclosure (37° C./5% CO2). The emission spectrum is centered on 420 nm. The cells are then brought into contact with each of the invention compounds taken separately or with the composition according to the invention for 24 hours. The culture media are then harvested, and the IL-6 concentrations assayed by ELISA method. An assay on the cell layers is used to reduce to the number of cells.

Compound | % of variation in IL-6 production (1.6 ppm) [%] | % of variation in IL-6 production (15 ppm) [%]
O=c1cc(-c2ccccc2)oc2cc(O)cc(O)c12 [Chrysine, 5,7-dihydroxyflavone] | −10 | –
Palmitoyl-GQPR-OH [Pal-GQPR] | – | −7

Reference: patent US20230026167A1, “COSMETIC OR DERMATOLOGICAL COMPOSITION ACTING IN PARTICULAR ON THE EFFECTS OF BLUE LIGHT ON SKIN AND ITS APPENDAGES, AND ASSOCIATED USES” (Sederma, priority 2019, published 2023)
